What was measured:
CCR4 = molecular target: T1, CCR4 (Homo sapiens, UniProt P51679); experiment: Chemotaxis inhibition assay, pcDI-CCR4-transfected HEK293 cells; assay type: cell-based; settings: 1 μM compound, 30 min pretreatment; C27 100 ng/ml; compared with compound 22 and compound 6b
T1 construct: expressed in transfected cells; cell membrane extract
T1 sequence (P51679 1-360): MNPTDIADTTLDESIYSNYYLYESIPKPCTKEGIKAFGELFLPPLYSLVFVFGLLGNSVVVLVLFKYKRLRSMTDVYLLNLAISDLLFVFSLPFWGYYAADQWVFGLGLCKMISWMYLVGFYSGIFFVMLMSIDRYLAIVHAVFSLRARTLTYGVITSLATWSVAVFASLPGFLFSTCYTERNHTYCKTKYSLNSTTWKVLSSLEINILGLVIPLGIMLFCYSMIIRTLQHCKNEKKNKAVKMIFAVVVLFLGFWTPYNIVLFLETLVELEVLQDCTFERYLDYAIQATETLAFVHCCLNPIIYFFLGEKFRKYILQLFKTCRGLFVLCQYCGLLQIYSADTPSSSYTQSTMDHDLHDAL
Experimental: Chemokine receptor expression plasmid was transiently transfected into HEK293 by electroporation at 120 V for 20 ms, using an electric pulse generator (Electro Square Porator ECM 830; BTX, San Diego, CA). Forty-eight-well micro chemotaxis chambers (Neutroprobe, Bethesda, MD, USA) were used in this assay. Forty-eight hours later, the cells were pretreated with compounds or compounds dissolved medium (1‰ DMSO) for 30 min at 37 °C prior to stimulation with chemoattractant. Chemoattractant diluted in RPMI 1640 medium supplemented with 0.1% bovine serum albumin (BSA) was placed in the lower chambers (27.5 μl/well). In these assays, CCL22 and CCL17 (Peprotech, Rocky Hill, NJ, USA) were used as chemoattractant and the final concentrations of chemoattractant were 10 ng/ml and 80 ng/ml respectively. The pcDI-CCR4-transfected HEK293 cells were resuspended in the same medium at a density of 1 × 10^6 cells/ml and added to the upper chambers (55 μl/well). […] Cells that migrated into each filter were counted in five randomly selected high-power fields (400 × ) per well. […] The chemotactic index was calculated and expressed as the number of cells that migrated to the sample over the number of cells that migrated to the control medium.

CCR1 = molecular target: T2, CCR1 (Homo sapiens, UniProt P32246); experiment: Chemotaxis assay for receptor specificity, HEK293-CCR1; assay type: cell-based; settings: compound as chemoattractant in lower chamber, 0.2, 1, 5, 25 μM
T2 construct: expressed in transfected cells; host or cells: HEK293; plasmid gift of Dr. Philip M. Murphy (NIAID, NIH)
T2 sequence (P32246 1-355): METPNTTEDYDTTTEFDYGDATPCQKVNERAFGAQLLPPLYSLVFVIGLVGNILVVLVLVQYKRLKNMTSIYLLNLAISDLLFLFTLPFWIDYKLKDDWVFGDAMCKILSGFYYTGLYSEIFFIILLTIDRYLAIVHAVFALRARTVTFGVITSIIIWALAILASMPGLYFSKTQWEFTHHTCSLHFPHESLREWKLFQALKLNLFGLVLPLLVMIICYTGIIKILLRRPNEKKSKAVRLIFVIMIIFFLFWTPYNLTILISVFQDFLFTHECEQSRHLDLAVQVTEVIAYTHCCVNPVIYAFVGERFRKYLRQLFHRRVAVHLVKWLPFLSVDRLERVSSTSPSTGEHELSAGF
Experimental: HEK293 cells were transfected with different chemokine receptors. Compound 8a with DMSO was diluted to 0.2 mM, 1 mM, 5 mM and 25 mM, and then we used RPMI 1640 medium containing 0.1% BSA for dilution. The final concentration is: 0.2 μM, 1 μM, 5 μM and 25 μM. DMSO was also diluted 1000-fold with 0.1% BSA RPMI 1640 medium. Chemokines was also diluted to an appropriate concentration. The dilutions of Compound 8a, 1‰ DMSO, the corresponding chemokines of different receptors and 0.1% BSA RPMI 1640 medium were placed in the lower chambers (27.5 μl/well). The transfected HEK293 cells were resuspended in the same medium at a density of 1 × 10^6 cells/ml and added to the upper chambers (55 μl/well).

[1] = system: OVA-induced asthmatic mice; experiment: BALF total cell and cell differential counts in OVA-induced asthmatic mice; assay type: in vivo, BALB/c mice; settings: for total cells count in BALF: vs vehicle
Experimental: (§1) Male BALB/c 6 week old mice were purchased from the Experimental Animal Center of Zhejiang University. All mice were raised in a specific pathogen-free animal facility. All animal experiments were carried out according to the guidelines for the care and use of laboratory animals and were approved by the ethics committee of Zhejiang University and Peking University, China.
(§2) Mice were sensitized and challenged with chicken egg OVA (sigma-Aldrich, St Louis, MO, USA) as described in details previously. Briefly, after sensitized by intraperitoneal injection of 100 μl (80 μg) OVA in 100 μl alum (Pierce, Rockford, IL, USA) on days 0 and 14, mice were exposure to 1% OVA aerosols for 40 min on days 24–26. Control mice were injected intraperitoneally with saline and exposed to saline aerosols.
Compound 8a was dissolved in saline with DMSO (0.5%). Half an hour before each OVA challenge, the groups of mice treated with various doses of compound 8a (0.2, 1, 5 mg) inhaled aerosolized compound 8a for 45 min on days 24–26. Compound 8a aerosols were produced by using a Plexiglas chamber and ultrasonic nebulizer. While the budesonide (BUD) group were administered with 5 mg budesonide, and the vehicle group were treated with compound-dissolved vehicle. The Saline was treated as the control.
Twenty-four hours after the last exposure, collection of BALF and cell count was performed as previously described. Briefly, lavage was performed by instilling 0.4 ml PBS into lungs and with drawn to collect the cells three times. Total BALF cells were counted. After be centrifuged, the remaining cells was spun onto glass slides, and stained with Wright–Giemsa stain. Differential counts were evaluated by counting 400 total cells.

[2] = system: OVA-induced asthmatic mice; experiment: Lung histology (H&E) inflammation score in OVA-induced asthmatic mice; assay type: in vivo, BALB/c mice; settings: 5 mg inhaled aerosol; vs OVA mice treated with vehicle
Experimental: as §1, §2
Compound 8a was dissolved in saline with DMSO (0.5%). Half an hour before each OVA challenge, the groups of mice treated with various doses of compound 8a (0.2, 1, 5 mg) inhaled aerosolized compound 8a for 45 min on days 24–26. Compound 8a aerosols were produced by using a Plexiglas chamber and ultrasonic nebulizer. […]
After sacrificed, the lungs were fixed in formalin overnight. […] Inflammation was scored according to published guidelines. And PAS-stained goblet cells in airway epithelium were quantified as described previously.

[3] = 5 mg inhaled aerosol, compared with vehicle treated group
[4] = compound 8a 0.2, 1, 5 mg, budesonide 5 mg, inhaled aerosol

O=C(C1CCCCN1)N1CCN(c2nc(Cl)cc(NCc3ccc(Cl)cc3Cl)n2)CC1 (stereo not shown) [compound 8a, {4-[4-Chloro-6-(2,4-dichloro-benzylamino)-pyrimidin-2-yl]-piperazin-1-yl}-piperidin-2-yl-methanone]
inhibition of chemotaxis of CCR4 transfected HEK293 to C27 (CCR4): more positive efficiency
chemotaxis effect of the compound on HEK293-CCR1 (CCR1): didn’t exert chemotaxis effects
total cells count in BALF ([1]; 0.2 mg inhaled aerosol): marginal
total cells count in BALF ([1]; 1 mg inhaled aerosol): remarkably inhibitory effect
absolute number of eosinophils in BALF [1, 3]: significantly decreased
absolute number of lymphocytes in BALF [1, 3]: significantly decreased
total cells count in BALF ([1]; 5 mg inhaled aerosol): remarkably inhibitory effect
number of macrophages in BALF [1, 4]: neither compound 8a nor budesonide affect
number of neutrophils in BALF [1, 4]: neither compound 8a nor budesonide affect
peribronchial and perivascular inflammation (H&E histology) [2]: comparable inhibitory effect

From publication PMC5678437, “A new antagonist for CCR4 attenuates allergic lung inflammation in a mouse model of asthma” (Scientific Reports, 2017)
